# From PubChem BioAssay AID1963873 (Molecular Pharmacology Branch, DTP, NCI, 2024)
# Test system: 276233-004-R-J1-PDC KRAS spheroids with HUVEC/MSC, viability
# Experiment: Anticancer human tumor 276233-004-R-J1-PDC patient-derived colon adenocarcinoma cell line growth inhibition [KRAS2]
# Conditions: for IC50: curve of first compound; for viability, T/C: stronger effect = lower value
# Text: Multicellular complex tumor spheroid response to RAS pathway inhibitors in combination with a targeted agents in patient-derived cell lines with oncogenic KRAS variants from multiple cancer types
# A high-throughput screen of multi-cell type tumor spheroids was designed to identify active combinations of targeted small molecules and KRAS pathway inhibitors. Complex spheroids include a stromal component modeled by human endothelial cells (HUVEC) and fibroblasts modeled by human mesenchymal stem cells (MSCs). The concentration ranges selected for each drug and investigational agent were based upon clinically achievable concentrations if the clinical Cmax of the agent was known.
# Compounds. The drugs and investigational agents: BI-3406 (NSC825286), BAY-293 (NSC824723), batoprotafib (TNO155; NSC825523), sotorasib (AMG 510; NSC818433), MRTX1257 (NSC819558), elimusertib (BAY 1895344; NSC800525), molibresib (GSK525762; NSC774829), temuterkib (LY3214996; NSC803410), venetoclax (NSC766270), alisertib (NSC759677), olaparib (NSC753686), talazoparib (NSC767125), erdafitinib (NSC781556), ipatasertib (NSC767898), cabozantinib (NSC761068), nintedanib (NSC756659), abemaciclib (NSC768073), docetaxel (NSC628503), trametinib (NSC758246), and sapanisertib (NSC764658) were obtained from the National Cancer Institute (NCI) Developmental Therapeutics Program Chemical Repository. The FDA-approved anticancer drug set is available from the Developmental Therapeutics Program. […] The stock solutions were prepared in dimethyl sulfoxide (DMSO, Sigma-Aldrich, St. Louis, MO, cat. D2650) at 800-fold the tested concentration and stored at -70 degrees C prior to their use. All drugs and investigational agents were tested over a range starting from a high concentration at or near the clinical Cmax and decreasing in half-log increments. If the clinical Cmax for an agent had not been determined, the highest concentration tested was 10 microM.
# Cell Culture. All cells were maintained in an incubator at 37 degrees C and 5% CO2 with 95% humidity. The PDC lines were cultured according to standard operating procedures established by the NCI PDMR (https://pdmr.cancer.gov/sops/default.htm). Briefly, all PDCs were thawed and cultured in Matrigel-coated flasks prepared with a working solution of 1X Ham's F-12 nutrient mix, without supplementation (Invitrogen, Waltham, MA, cat. 11765054), 100 U/mL penicillin-streptomycin (Invitrogen, cat. 15140122), and 2.5% Matrigel (Corning Inc., Corning, NY, cat. 354248) for the first three passages. All PDCs were cultured in complete DMEM/F-12 media containing advanced DMEM/F-12 (Invitrogen, cat. 12634028), 4.9% defined fetal bovine serum, heat inactivated (HyClone Laboratories Inc., Logan, UT, cat. SH30070.03HI), 389 ng/mL hydrocortisone (Sigma-Aldrich, cat. H4001), 9.7 ng/mL human EGF recombinant protein (Invitrogen, cat. PHG0313), 23.4 microg/mL adenine (Sigma-Aldrich, cat. A2786), 97.3 U/mL penicillin-streptomycin (Invitrogen, cat. 15140122), 1.9 mM L-glutamine (Invitrogen, cat. 25030081), and 9.7 microM Y-27632 dihydrochloride (Tocris Bioscience, Bristol, United Kingdom, cat. 1254). The PDCs were cultured in complete DMEM/F12 media without 9.7 microM Y-27632 dihydrochloride for at least two passages prior to the screen. The established cell line HOP-62 was cultured in RPMI 1640 medium, HEPES (Invitrogen, cat. 22400105) with 10% defined fetal bovine serum (HyClone Laboratories Inc., cat. SH30070.03) and 2 mM L-glutamine (Invitrogen, cat. 25030081). The pooled donor HUVEC were cultured in endothelial cell growth medium 2 (PromoCell, Heidelberg, Germany, cat. C-22011) and the hMSC were cultured in mesenchymal stem cell growth medium 2 (PromoCell, cat. C-28009). For all experiments, HUVEC and hMSC were used at passages </=5, while the malignant cell lines were used at passages </=15. […]
# [1] = second compound 0.1 µM, first compound 0.0316 µM
# [2] = second compound 0.316 µM, first compound 0.0316 µM
# [3] = second compound 1 µM, first compound 0.0316 µM
# [4] = second compound 3.16 µM, first compound 0.0316 µM
# [5] = second compound 10 µM, first compound 0.0316 µM
# 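Also: cells exposed to agents for seven days before viability read.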
# 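For viability, T/C in this document: 100% = DMSO vehicle control wells and lower values mean fewer viable cells.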
structure (smiles),measurement,setting,value
CC(=O)Nc1cccc(-n2c(=O)n(C3CC3)c(=O)c3c(Nc4ccc(I)cc4F)n(C)c(=O)c(C)c32)c1 + C=CC(=O)N1CCN(c2nc(=O)n(-c3c(C)ccnc3C(C)C)c3nc(-c4c(O)cccc4F)c(F)cc23)C(C)C1,IC50,second compound 0.1 µM,6.44 nM
same,IC50,second compound 0.316 µM,9.46 nM
same,IC50,second compound 1 µM,9.28 nM
same,IC50,second compound 3.16 µM,6.41 nM
same,IC50,second compound 10 µM,2.45 nM
same,"viability, T/C","second compound 0.1 µM, first compound 0.0001 µM",89.9%
same,"viability, T/C","second compound 0.1 µM, first compound 0.000316 µM",97.5%
same,"viability, T/C","second compound 0.1 µM, first compound 0.001 µM",85.7%
same,"viability, T/C","second compound 0.1 µM, first compound 0.00316 µM",58.9%
same,"viability, T/C","second compound 0.1 µM, first compound 0.01 µM",45.4%
same,"viability, T/C",[1],21.3%
same,"viability, T/C","second compound 0.316 µM, first compound 0.0001 µM",87.1%
same,"viability, T/C","second compound 0.316 µM, first compound 0.000316 µM",84.9%
same,"viability, T/C","second compound 0.316 µM, first compound 0.001 µM",76.9%
same,"viability, T/C","second compound 0.316 µM, first compound 0.00316 µM",74%
same,"viability, T/C","second compound 0.316 µM, first compound 0.01 µM",47.9%
same,"viability, T/C",[2],18.6%
same,"viability, T/C","second compound 1 µM, first compound 0.0001 µM",102%
same,"viability, T/C","second compound 1 µM, first compound 0.000316 µM",85.5%
same,"viability, T/C","second compound 1 µM, first compound 0.001 µM",80%
same,"viability, T/C","second compound 1 µM, first compound 0.00316 µM",71.9%
same,"viability, T/C","second compound 1 µM, first compound 0.01 µM",49.5%
same,"viability, T/C",[3],19.4%
same,"viability, T/C","second compound 3.16 µM, first compound 0.0001 µM",75.2%
same,"viability, T/C","second compound 3.16 µM, first compound 0.000316 µM",96.3%
same,"viability, T/C","second compound 3.16 µM, first compound 0.001 µM",65.8%
same,"viability, T/C","second compound 3.16 µM, first compound 0.00316 µM",59.5%
same,"viability, T/C","second compound 3.16 µM, first compound 0.01 µM",45.9%
same,"viability, T/C",[4],24.2%
same,"viability, T/C","second compound 10 µM, first compound 0.0001 µM",74.2%
same,"viability, T/C","second compound 10 µM, first compound 0.000316 µM",73%
same,"viability, T/C","second compound 10 µM, first compound 0.001 µM",57.6%
same,"viability, T/C","second compound 10 µM, first compound 0.00316 µM",45.4%
same,"viability, T/C","second compound 10 µM, first compound 0.01 µM",36.8%
same,"viability, T/C",[5],21.3%
COc1cc(Nc2ncc3c(n2)-c2ccc(Cl)cc2C(c2c(F)cccc2OC)=NC3)ccc1C(=O)O + C=CC(=O)N1CCN(c2nc(=O)n(-c3c(C)ccnc3C(C)C)c3nc(-c4c(O)cccc4F)c(F)cc23)C(C)C1,IC50,second compound 0.1 µM,> 10000 nM
same,IC50,second compound 0.316 µM,> 10000 nM
same,IC50,second compound 1 µM,> 10000 nM
same,IC50,second compound 3.16 µM,> 10000 nM
same,IC50,second compound 10 µM,> 10000 nM
same,"viability, T/C",[1],132%
same,"viability, T/C","second compound 0.1 µM, first compound 0.1 µM",118%
same,"viability, T/C","second compound 0.1 µM, first compound 0.316 µM",117%
same,"viability, T/C","second compound 0.1 µM, first compound 1 µM",104%
same,"viability, T/C","second compound 0.1 µM, first compound 3.16 µM",116%
same,"viability, T/C","second compound 0.1 µM, first compound 10 µM",88.3%
same,"viability, T/C",[2],112%
same,"viability, T/C","second compound 0.316 µM, first compound 0.1 µM",110%
same,"viability, T/C","second compound 0.316 µM, first compound 0.316 µM",117%
same,"viability, T/C","second compound 0.316 µM, first compound 1 µM",111%
same,"viability, T/C","second compound 0.316 µM, first compound 3.16 µM",99%
same,"viability, T/C","second compound 0.316 µM, first compound 10 µM",97%
same,"viability, T/C",[3],102%
same,"viability, T/C","second compound 1 µM, first compound 0.1 µM",118%
same,"viability, T/C","second compound 1 µM, first compound 0.316 µM",108%
same,"viability, T/C","second compound 1 µM, first compound 1 µM",115%
same,"viability, T/C","second compound 1 µM, first compound 3.16 µM",110%
same,"viability, T/C","second compound 1 µM, first compound 10 µM",96.5%
same,"viability, T/C",[4],139%
same,"viability, T/C","second compound 3.16 µM, first compound 0.1 µM",125%
same,"viability, T/C","second compound 3.16 µM, first compound 0.316 µM",110%
same,"viability, T/C","second compound 3.16 µM, first compound 1 µM",105%
same,"viability, T/C","second compound 3.16 µM, first compound 3.16 µM",96.3%
same,"viability, T/C","second compound 3.16 µM, first compound 10 µM",89.1%
same,"viability, T/C",[5],88.3%
same,"viability, T/C","second compound 10 µM, first compound 0.1 µM",107%
same,"viability, T/C","second compound 10 µM, first compound 0.316 µM",87.4%
same,"viability, T/C","second compound 10 µM, first compound 1 µM",91.6%
same,"viability, T/C","second compound 10 µM, first compound 3.16 µM",79.3%
same,"viability, T/C","second compound 10 µM, first compound 10 µM",86.5%
